Target: T1, interaction between biotinylated human S100A9 and human RAGE-Fc (Homo sapiens, UniProt P06702)
T1 construct: made in house; host or cells: E. coli BL21(DE3)/pET1120 (pLR757)
T1 sequence (P06702 1-114): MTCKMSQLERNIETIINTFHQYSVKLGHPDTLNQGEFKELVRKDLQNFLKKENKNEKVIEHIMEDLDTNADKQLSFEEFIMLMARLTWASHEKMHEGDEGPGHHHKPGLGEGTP
Experiment: AlphaScreen inhibition assay, Biot-hS100A9:hRAGE-Fc (S100A9-RAGE inhibition assay)
Assay type: binding
Conditions: biot-hS100A9 and rhRAGE-Fc, Ca2+ and Zn2+ in buffer
Description: FIG. 1 is a schematic representation of an assay of the inhibition of the interaction between biotinylated human S100A9 and human RAGE-Fc using a small molecule S100A9 binder.
Inhibition Assay, Biot-hS100A9:hRAGE-Fc
The AlphaScreen (Amplified Luminescent Proximity Homogeneous Assay) contains two types of beads, Alpha Donor beads and Acceptor beads (PerkinElmer). Upon laser excitation at 680 nm a photosensitizer in the Donor bead converts ambient oxygen to a more excited singlet state. The singlet oxygen molecule diffuses (maximum 200 nm) to react with a thioxene derivative in the Acceptor bead and generates a chemiluminescence reaction. Fluorophores in the Acceptor bead subsequently emit light at 520-620 nm which can be detected in the EnVision® Multilabel plate Reader (PerkinElmer). The beads are light sensitive and all work with the beads is performed under subdued light conditions or using green filters on light sources (Roscolux Chroma Green #389, Rosco).
In the AlphaScreen Inhibition Assay described here, protein A (Staphylococcus aureus) conjugated Acceptor beads are used together with streptavidin coated Donor beads (Perkin Elmer 6760617M). The Acceptor beads are pre-incubated with Fc-tagged recombinant human RAGE (rhRAGE-Fc) allowing binding of the rhRAGE-Fc to protein A on the beads. Biotinylated human S100A9 (biot-hS100A9) is pre-incubated with the low molecular test compounds. The pre-mixes are then added to the wells of a micro-plate and incubated allowing interaction between biot-hS100A9 and rhRAGE-Fc. Subsequent addition of streptavidin coated Donor beads causes binding of the streptavidin to the biotinylated hS100A9. After an additional incubation the signal is measured.
Without inhibitory compounds, the interaction of biot-hS100A9 to rhRAGE-Fc will bring the Acceptor and Donor beads in close proximity thus generating a high signal. With an inhibitor present the complex will not form resulting in a decreased signal.
The AlphaScreen assay method is used for screening of the inhibitory effect of different compound samples at fixed concentrations or for IC50 determination by varying the compound concentrations. Samples of test compounds and references are prepared from solutions in DMSO. Relevant reference inhibitors and DMSO are used as controls for defined inhibition and non-inhibition, respectively in the assay. The percent inhibition in assay for test compounds and references are calculated by comparing their obtained assay signals with the signal values for the control with only DMSO (no compound).
Assay concentration of biotinylated hS100A9 and rhRAGE-Fc are batch dependent, and are determined and defined by separate cross-titration experiments using this AlphaScreen inhibition method to verify the optimal setup regarding signal strength and achievement of a defined inhibition with relevant reference compounds. The Final assay concentrations of Acceptor and Donor beads are 20 μg/mL.
Assay buffer is prepared by adding CaCl2 and ZnCl2 to HBS-P and is used freshly prepared in the experiment.
Biotin-hS100A9 solution for the experiment is prepared by dilution of appropriate amount of stock solution biot-hS100A9 in assay buffer (with CaCl2 and ZnCl2) and incubation in room temperature for 30 minutes.
rhRAGE-Fc solution for the experiment is prepared by dilution appropriate amount of rhRAGE-Fc stock in assay buffer.
Protein A Acceptor beads are diluted in assay buffer and are added to an equal volume of the prepared diluted rhRAGE-Fc solution. The beads are light sensitive. The vial is covered with aluminum foil and incubated at room temperature in the dark until biot-hS100A9+compound incubation is finished (see below).
Streptavidin-coated Donor beads are diluted in assay buffer. The beads are very light sensitive. The vial is covered with aluminum foil and incubated at room temperature in the dark until use (see below).
Samples of test compounds, appropriate references and DMSO control are diluted in assay buffer. […]

IC50 [nM] | SMILES
660 | O=C(CCC1CCCC1)NC1(C(F)(F)F)C(=O)Nc2nc3c(C(=O)O)cccc3n21 (single isomer, unassigned) [Example 231a, 3-(3-cyclopentylpropanamido)-4-oxo-3-(trifluoromethyl)-2,5,7-triazatricyclo[6.4.0.0^2,6]dodeca-1(12),6,8,10-tetraene-9-carboxylic acid]
840 | O=C(CCC1CCCC1)NC1(C(F)(F)F)C(=O)Nc2nc3c(C(=O)O)cccc3n21 (single isomer, unassigned) [Example 231b, 3-(3-cyclopentylpropanamido)-4-oxo-3-(trifluoromethyl)-2,5,7-triazatricyclo[6.4.0.0^2,6]dodeca-1(12),6,8,10-tetraene-9-carboxylic acid]
10200 | O=C(CCC1CCCC1)NC1(C(F)(F)F)C(=O)Nc2nc3ccccc3n21 (stereo not shown) [Example 9, 3-cyclopentyl-N-[4-oxo-3-(trifluoromethyl)-2,5,7-triazatricyclo[6.4.0.0^2,6]dodeca-1(8),6,9,11-tetraen-3-yl]propanamide]
3000 | O=C(NC1(C(F)(F)F)C(=O)Nc2nc3ccccc3n21)c1cc(Cl)cc(Cl)c1 (stereo not shown) [Example 12, 3,5-dichloro-N-[4-oxo-3-(trifluoromethyl)-2,5,7-triazatricyclo[6.4.0.0^2,6]dodeca-1(12),6,8,10-tetraen-3-yl]benzamide]
3500 | Cc1cc2nc3n(c2cc1C)C(NC(=O)c1ccccc1)(C(F)(F)F)C(=O)N3 (stereo not shown) [Example 14, N-[10,11-dimethyl-4-oxo-3-(trifluoromethyl)-2,5,7-triazatricyclo[6.4.0.0^2,6]dodeca-1(8),6,9,11-tetraen-3-yl]benzamide]
1400 | Cc1cc2nc3n(c2cc1C)C(NC(=O)CCc1ccccc1)(C(F)(F)F)C(=O)N3 (stereo not shown) [Example 15, N-[10,11-dimethyl-4-oxo-3-(trifluoromethyl)-2,5,7-triazatricyclo[6.4.0.0^2,6]dodeca-1(8),6,9,11-tetraen-3-yl]-3-phenylpropanamide]
1300 | Cc1cc2nc3n(c2cc1C)C(NC(=O)CCc1ccccc1Cl)(C(F)(F)F)C(=O)N3 (stereo not shown) [Example 16, 3-(2-chlorophenyl)-N-[10,11-dimethyl-4-oxo-3-(trifluoromethyl)-2,5,7-triazatricyclo-[6.4.0.0^2,6]dodeca-1(8),6,9,11-tetraen-3-yl]propanamide]
2000 | Cc1cc2nc3n(c2cc1C)C(NC(=O)c1ccc(-c2ccccc2)cc1)(C(F)(F)F)C(=O)N3 (stereo not shown) [Example 18, N-[10,11-dimethyl-4-oxo-3-(trifluoromethyl)-2,5,7-triazatricyclo[6.4.0.0^2,6]dodeca-1(8),6,9,11-tetraen-3-yl]-4-phenylbenzamide]
400 | Cc1cc2nc3n(c2cc1C)C(NC(=O)CCCC1CCCC1)(C(F)(F)F)C(=O)N3 (stereo not shown) [Example 19, 4-cyclopentyl-N-[10,11-dimethyl-4-oxo-3-(trifluoromethyl)-2,5,7-triazatricyclo-[6.4.0.0^2,6]dodeca-1(8),6,9,11-tetraen-3-yl]butanamide]
1700 | Cc1cc2nc3n(c2cc1C)C(NC(=O)CC1CCCCC1)(C(F)(F)F)C(=O)N3 (stereo not shown) [Example 20, 2-cyclohexyl-N-[10,11-dimethyl-4-oxo-3-(trifluoromethyl)-2,5,7-triazatricyclo-[6.4.0.0^2,6]dodeca-1(8),6,9,11-tetraen-3-yl]acetamide]
4000 | Cc1cc2nc3n(c2cc1C)C(NC(=O)c1ccc(OCC(F)(F)F)nc1)(C(F)(F)F)C(=O)N3 (stereo not shown) [Example 21, N-[10,11-dimethyl-4-oxo-3-(trifluoromethyl)-2,5,7-triazatricyclo[6.4.0.0^2,6]dodeca-1(8),6,9,11-tetraen-3-yl]-6-(2,2,2-trifluoroethoxy)pyridine-3-carboxamide]
400 | Cc1cc2nc3n(c2cc1C)C(NC(=O)CCC1CCCC1)(C(F)(F)F)C(=O)N3 (stereo not shown) [Example 27, 3-cyclopentyl-N-[10,11-dimethyl-4-oxo-3-(trifluoromethyl)-2,5,7-triazatricyclo[6.4.0.0^2,6]-dodeca-1(12),6,8,10-tetraen-3-yl]propanamide]
3700 | Cc1cc2nc3n(c2cc1C)C(NC(=O)c1ccc(Cl)nc1)(C(F)(F)F)C(=O)N3 (stereo not shown) [Example 28, 6-chloro-N-[10,11-dimethyl-4-oxo-3-(trifluoromethyl)-2,5,7-triazatricyclo[6.4.0.0^2,6]-dodeca-1(12),6,8,10-tetraen-3-yl]pyridine-3-carboxamide]
5400 | Cc1cc2nc3n(c2cc1C)C(NC(=O)CCc1c(Cl)cccc1Cl)(C(F)(F)F)C(=O)N3 (stereo not shown) [Example 29, 3-(2,6-dichlorophenyl)-N-[10,11-dimethyl-4-oxo-3-(trifluoromethyl)-2,5,7-triaza-tricyclo[6.4.0.0^2,6]dodeca-1(8),6,9,11-tetraen-3-yl]propanamide]
2700 | Cc1cc2nc3n(c2cc1C)C(NC(=O)c1cccc(NC2CCCCC2)n1)(C(F)(F)F)C(=O)N3 (stereo not shown) [Example 35, 6-(cyclohexylamino)-N-[10,11-dimethyl-4-oxo-3-(trifluoromethyl)-2,5,7-triazatricyclo-[6.4.0.0^2,6]dodeca-1(12),6,8,10-tetraen-3-yl]pyridine-2-carboxamide]
3700 | Cc1cc2nc3n(c2cc1C)C(NC(=O)c1cccc(C2CCCCC2)n1)(C(F)(F)F)C(=O)N3 (stereo not shown) [Example 36, 6-cyclohexyl-N-[10,11-dimethyl-4-oxo-3-(trifluoromethyl)-2,5,7-triazatricyclo[6.4.0.0^2,6]-dodeca-1(12),6,8,10-tetraen-3-yl]pyridine-2-carboxamide]
800 | O=C(CCc1ccccc1)NC1(C(F)(F)F)C(=O)Nc2nc3cc(Cl)c(Cl)cc3n21 (stereo not shown) [Example 37, N-[10,11-dichloro-4-oxo-3-(trifluoromethyl)-2,5,7-triazatricyclo[6.4.0.0^2,6]dodeca-1(8),6,9,11-tetraen-3-yl]-3-phenylpropanamide]
1000 | O=C(NC1(C(F)(F)F)C(=O)Nc2nc3cc(Cl)c(Cl)cc3n21)c1ccccc1 (stereo not shown) [Example 38, N-[10,11-dichloro-4-oxo-3-(trifluoromethyl)-2,5,7-triazatricyclo[6.4.0.0^2,6]dodeca-1(8),6,9,11-tetraen-3-yl]benzamide]
500 | O=C(CCC1CCCC1)NC1(C(F)(F)F)C(=O)Nc2nc3cc(Cl)c(Cl)cc3n21 (stereo not shown) [Example 39, 3-cyclopentyl-N-[10,11-dichloro-4-oxo-3-(trifluoromethyl)-2,5,7-triazatricyclo[6.4.0.0^2,6]-dodeca-1(12),6,8,10-tetraen-3-yl]propanamide]
3300 | O=C(NC1(C(F)(F)F)C(=O)Nc2nc3cc(Cl)c(Cl)cc3n21)C1CC2(CNC2)C1 (stereo not shown) [Example 40, N-[10,11-dichloro-4-oxo-3-(trifluoromethyl)-2,5,7-triazatricyclo[6.4.0.0^2,6]dodeca-1(12),6,8,10-tetraen-3-yl]-2-azaspiro[3.3]heptane-6-carboxamide]
4700 | COCC(=O)N1CCC(C(=O)NC2(C(F)(F)F)C(=O)Nc3nc4cc(Cl)c(Cl)cc4n32)CC1 (stereo not shown) [Example 44, N-[10,11-dichloro-4-oxo-3-(trifluoromethyl)-2,5,7-triazatricyclo[6.4.0.0^2,6]dodeca-1(12),6,8,10-tetraen-3-yl]-1-(2-methoxyacetyl)piperidine-4-carboxamide]
3000 | CC(C)CC(=O)N1CCC(C(=O)NC2(C(F)(F)F)C(=O)Nc3nc4cc(Cl)c(Cl)cc4n32)CC1 (stereo not shown) [Example 45, N-[10,11-dichloro-4-oxo-3-(trifluoromethyl)-2,5,7-triazatricyclo[6.4.0.0^2,6]dodeca-1(12),6,8,10-tetraen-3-yl]-1-(3-methylbutanoyl)piperidine-4-carboxamide]
